Results: patent publication US20160271063A1, “STERILE S-ADENOSYL METHIONINE WITH A HIGH CONTENT OF ACTIVE ISOMER FOR INJECTABLE SOLUTIONS, AND PROCEDURE FOR OBTAINING IT” (GNOSIS S.P.A., priority 2013, published 2016)
Entries after “also recorded” stand apart in the source; their conditions may differ.

Experiments:
[1] = Stability of SAMe salt solutions; format: physicochemical
[2] = sterile spray-dried product
[3] = Residual humidity of the powder; format: physicochemical; conditions: for Humidity %: Test in Mobile Minor unit, IN/OUT temperature differs per test
[4] = S,S isomer content by HPLC (area of active isomer to sum of both isomers); format: physicochemical; conditions: for S,S Stereoisomer %: Test in Mobile Minor unit, IN/OUT temperature differs per test; for enantiomeric excess of S,S isomer: sterile spray-dried product
Protocol: The S-adenosyl methionine of the invention preferably has a water content below 2% by weight and an active enantiomer content exceeding 75% of the total SAMe. The enantiomer content is determined by the percentage of the area of active isomer to the sum of the area of both isomers in the HPLC analysis.

[5] = Particle size (laser particle-size distribution analysis); format: physicochemical; conditions: for Particle size D50μ: Test in Mobile Minor unit, IN/OUT temperature differs per test
[6] = Microscope appearance of particles; format: physicochemical
BET surface area = format: physicochemical
[7] = spray-dried, TIN 150° C., TOUT 95-96° C.
[8] = Table 2, comparison with the medicament on the market

| Structure (SMILES) | endotoxin level [2] | Humidity % [3] [%] | S,S Stereoisomer % [4] [%] | enantiomeric excess of S,S isomer [4] | Particle size D50μ [5] [μ] | also measured |
| --- | --- | --- | --- | --- | --- | --- |
| C[S+](CC[C@H](N)C(=O)[O-])C[C@H]1O[C@@H](n2cnc3c(N)ncnc32)[C@H](O)[C@@H]1O (some centres unmarked) [SAMe SD4, S-adenosyl methionine] | – | – | – | – | – | stability of the solution ([1]; at ambient temperature): break down rapidly; stability of the solution ([1]; stored at a cold temperature, unless microbial contamination is present): stable |
| C[S+](CC[C@H](N)C(=O)[O-])C[C@H]1O[C@@H](n2cnc3c(N)ncnc32)[C@H](O)[C@@H]1O.O=S(=O)(O)CCCCS(=O)(=O)O (single isomer, unassigned) [Example 3, SAMe 1,4-butanedisulphonate] | less than 0.118 U/g | 1.63 | 75.65 | exceeding 80% | 9 | – |
| C[S+](CC[C@H](N)C(=O)[O-])C[C@H]1O[C@@H](n2cnc3c(N)ncnc32)[C@H](O)[C@@H]1O.O=S(=O)(O)CCCCS(=O)(=O)O (some centres unmarked) [Example 1, SAMe 1,4-butanedisulphonate] | – | – | – | – | – | residual humidity [3, 7]: 1.50%; stereoisomeric ratio [4, 7]: 73.77%; particle size D50 [5, 7]: 10 microns |
| C[S+](CC[C@H](N)C(=O)[O-])C[C@H]1O[C@@H](n2cnc3c(N)ncnc32)[C@H](O)[C@@H]1O.O=S(=O)(O)CCCCS(=O)(=O)O (single isomer, unassigned) [Example 7, SAMe 1,4-butanedisulphonate, reference compound] | – | 2.65 | 75.95 | – | 10 | enantiomeric ratio, S,S isomer [4]: 70% |
| C[S+](CC[C@H](N)C(=O)[O-])C[C@H]1O[C@@H](n2cnc3c(N)ncnc32)[C@H](O)[C@@H]1O.O=S(=O)(O)CCCCS(=O)(=O)O (single isomer, unassigned) [Example 4, SAMe 1,4-butanedisulphonate] | less than 0.118 U/g | 1.63 | 72.60 | exceeding 80% | 8 | – |
| C[S+](CC[C@H](N)C(=O)[O-])C[C@H]1O[C@@H](n2cnc3c(N)ncnc32)[C@H](O)[C@@H]1O.O=S(=O)(O)CCCCS(=O)(=O)O (single isomer, unassigned) [Example 5, SAMe 1,4-butanedisulphonate] | – | 1.88 | 76.63 | – | 9 | Microscope [6]: Regular,; also recorded: spherical particles; Humidity [3, 8]: 1.20%; SS isomer (%) [4, 8]: 73.1%; Laser particle-size distribution analysis, 10% ([5]; 10%): 10% = 14.4 micron; Laser particle-size distribution analysis, 50% ([5]; 50%): 50% = 28.7 micron; Laser particle-size distribution analysis, 90% ([5]; 90%): 90% = 53.8 micron; BET surface area (m2/g) (BET surface area): 0.3460 m2/g |
